Results: ChEMBL document CHEMBL5154747, “Discovery of new carbonic anhydrase IX inhibitors as anticancer agents by toning the hydrophobic and hydrophilic rims of the active site to encounter the dual-tail approach” (Eur J Med Chem, 2022)

system: T47D; assay: Anticancer activity against human T47D cells assessed as cell growth inhibition at 10 uM incubated for 48 hrs by SRB assay relative to control; format: functional; conditions: read-out: GI

SMILES | inhibition of growth at 10 µM
NS(=O)(=O)c1ccc(Nc2nc(N/N=C/c3ccccn3)nc(Nc3ccccc3)n2)cc1 | 118%

system: U-251; assay: Anticancer activity against human U-251 cells assessed as cell growth inhibition at 10 uM incubated for 48 hrs by SRB assay relative to control; format: functional; conditions: read-out: GI

SMILES | inhibition of growth at 10 µM
NS(=O)(=O)c1ccc(Nc2nc(N/N=C/c3ccccn3)nc(Nc3ccccc3)n2)cc1 | 155%

system: SK-MEL-28; assay: Anticancer activity against human SK-MEL-28 cells assessed as cell growth inhibition at 10 uM incubated for 48 hrs by SRB assay relative to control; format: functional; conditions: read-out: GI

SMILES | inhibition of growth at 10 µM
NS(=O)(=O)c1ccc(Nc2nc(N/N=C/c3ccccn3)nc(Nc3ccccc3)n2)cc1 | 164%

system: RPMI-8226; assay: Anticancer activity against human RPMI-8226 cells assessed as cell growth inhibition at 10 uM incubated for 48 hrs by SRB assay relative to control; format: functional; conditions: read-out: GI

SMILES | inhibition of growth at 10 µM
NS(=O)(=O)c1ccc(Nc2nc(N/N=C/c3ccccn3)nc(Nc3ccccc3)n2)cc1 | 63%

system: SK-OV-3; assay: Anticancer activity against human SK-OV-3 cells assessed as cell growth inhibition at 10 uM incubated for 48 hrs by SRB assay relative to control; format: functional; conditions: read-out: GI

SMILES | inhibition of growth at 10 µM
NS(=O)(=O)c1ccc(Nc2nc(N/N=C/c3ccccn3)nc(Nc3ccccc3)n2)cc1 | 131%

system: CAKI-1; assay: Anticancer activity against human CAKI-1 cells assessed as cell growth inhibition at 10 uM incubated for 48 hrs by SRB assay relative to control; format: functional; conditions: read-out: GI

SMILES | inhibition of growth at 10 µM
NS(=O)(=O)c1ccc(Nc2nc(N/N=C/c3ccccn3)nc(Nc3ccccc3)n2)cc1 | 125%

system: NCI-H522; assay: Anticancer activity against human NCI-H522 cells assessed as cell growth inhibition at 10 uM incubated for 48 hrs by SRB assay relative to control; format: functional; conditions: read-out: GI

SMILES | inhibition of growth at 10 µM
NS(=O)(=O)c1ccc(Nc2nc(N/N=C/c3ccccn3)nc(Nc3ccccc3)n2)cc1 | 132%

system: SK-MEL-5; assay: Anticancer activity against human SK-MEL-5 cells assessed as cell growth inhibition at 10 uM incubated for 48 hrs by SRB assay relative to control; format: functional; conditions: read-out: GI

SMILES | inhibition of growth at 10 µM
NS(=O)(=O)c1ccc(Nc2nc(N/N=C/c3ccccn3)nc(Nc3ccccc3)n2)cc1 | 184%

system: HL-60(TB); assay: Anticancer activity against human HL-60(TB) cells assessed as cell growth inhibition at 10 uM incubated for 48 hrs by SRB assay relative to control; format: functional; conditions: read-out: GI

SMILES | inhibition of growth at 10 µM
NS(=O)(=O)c1ccc(Nc2nc(N/N=C/c3ccccn3)nc(Nc3ccccc3)n2)cc1 | 97%

system: K562; assay: Anticancer activity against human K562 cells assessed as cell growth inhibition at 10 uM incubated for 48 hrs by SRB assay relative to control; format: functional; conditions: read-out: GI

SMILES | inhibition of growth at 10 µM
NS(=O)(=O)c1ccc(Nc2nc(N/N=C/c3ccccn3)nc(Nc3ccccc3)n2)cc1 | 87%

system: OVCAR-3; assay: Anticancer activity against human OVCAR-3 cells assessed as cell growth inhibition at 10 uM incubated for 48 hrs by SRB assay relative to control; format: functional; conditions: read-out: GI

SMILES | inhibition of growth at 10 µM
NS(=O)(=O)c1ccc(Nc2nc(N/N=C/c3ccccn3)nc(Nc3ccccc3)n2)cc1 | 115%

system: HT-29; assay: Anticancer activity against human HT-29 cells assessed as cell growth inhibition at 10 uM incubated for 48 hrs by SRB assay relative to control; format: functional; conditions: read-out: GI

SMILES | inhibition of growth at 10 µM
NS(=O)(=O)c1ccc(Nc2nc(N/N=C/c3ccccn3)nc(Nc3ccccc3)n2)cc1 | 93%

system: EKVX; assay: Anticancer activity against human EKVX cells assessed as cell growth inhibition at 10 uM incubated for 48 hrs by SRB assay relative to control; format: functional; conditions: read-out: GI

SMILES | inhibition of growth at 10 µM
NS(=O)(=O)c1ccc(Nc2nc(N/N=C/c3ccccn3)nc(Nc3ccccc3)n2)cc1 | 86%

system: ACHN; assay: Anticancer activity against human ACHN cells assessed as cell growth inhibition at 10 uM incubated for 48 hrs by SRB assay relative to control; format: functional; conditions: read-out: GI

SMILES | inhibition of growth at 10 µM
NS(=O)(=O)c1ccc(Nc2nc(N/N=C/c3ccccn3)nc(Nc3ccccc3)n2)cc1 | 82%

system: SNB-19; assay: Anticancer activity against human SNB-19 cells assessed as cell growth inhibition at 10 uM incubated for 48 hrs by SRB assay relative to control; format: functional; conditions: read-out: GI

SMILES | inhibition of growth at 10 µM
NS(=O)(=O)c1ccc(Nc2nc(N/N=C/c3ccccn3)nc(Nc3ccccc3)n2)cc1 | 90%

system: Hs-578T; assay: Anticancer activity against human Hs-578T cells assessed as cell growth inhibition at 10 uM incubated for 48 hrs by SRB assay relative to control; format: functional; conditions: read-out: GI

SMILES | inhibition of growth at 10 µM
NS(=O)(=O)c1ccc(Nc2nc(N/N=C/c3ccccn3)nc(Nc3ccccc3)n2)cc1 | 118%

system: IGROV-1; assay: Anticancer activity against human IGROV-1 cells assessed as cell growth inhibition at 10 uM incubated for 48 hrs by SRB assay relative to control; format: functional; conditions: read-out: GI

SMILES | inhibition of growth at 10 µM
NS(=O)(=O)c1ccc(Nc2nc(N/N=C/c3ccccn3)nc(Nc3ccccc3)n2)cc1 | 130%

system: SN12C; assay: Anticancer activity against human SN12C cells assessed as cell growth inhibition at 10 uM incubated for 48 hrs by SRB assay relative to control; format: functional; conditions: read-out: GI

SMILES | inhibition of growth at 10 µM
NS(=O)(=O)c1ccc(Nc2nc(N/N=C/c3ccccn3)nc(Nc3ccccc3)n2)cc1 | 97%

system: OVCAR-8; assay: Anticancer activity against human OVCAR-8 cells assessed as cell growth inhibition at 10 uM incubated for 48 hrs by SRB assay relative to control; format: functional; conditions: read-out: GI

SMILES | inhibition of growth at 10 µM
NS(=O)(=O)c1ccc(Nc2nc(N/N=C/c3ccccn3)nc(Nc3ccccc3)n2)cc1 | 96%

system: LOX IMVI; assay: Anticancer activity against human LOX IMVI cells assessed as cell growth inhibition at 10 uM incubated for 48 hrs by SRB assay relative to control; format: functional; conditions: read-out: GI

SMILES | inhibition of growth at 10 µM
NS(=O)(=O)c1ccc(Nc2nc(N/N=C/c3ccccn3)nc(Nc3ccccc3)n2)cc1 | 143%

system: 786-0; assay: Anticancer activity against human 786-0 cells assessed as cell growth inhibition at 10 uM incubated for 48 hrs by SRB assay relative to control; format: functional; conditions: read-out: GI

SMILES | inhibition of growth at 10 µM
NS(=O)(=O)c1ccc(Nc2nc(N/N=C/c3ccccn3)nc(Nc3ccccc3)n2)cc1 | 91%

system: UO-31; assay: Anticancer activity against human UO-31 cells assessed as cell growth inhibition at 10 uM incubated for 48 hrs by SRB assay relative to control; format: functional; conditions: read-out: GI

SMILES | inhibition of growth at 10 µM
NS(=O)(=O)c1ccc(Nc2nc(N/N=C/c3ccccn3)nc(Nc3ccccc3)n2)cc1 | 82%

system: SNB-75; assay: Anticancer activity against human SNB-75 cells assessed as cell growth inhibition at 10 uM incubated for 48 hrs by SRB assay relative to control; format: functional; conditions: read-out: GI

SMILES | inhibition of growth at 10 µM
NS(=O)(=O)c1ccc(Nc2nc(N/N=C/c3ccccn3)nc(Nc3ccccc3)n2)cc1 | 125%

system: HCC 2998; assay: Anticancer activity against human HCC 2998 cells assessed as cell growth inhibition at 10 uM incubated for 48 hrs by SRB assay relative to control; format: functional; conditions: read-out: GI

SMILES | inhibition of growth at 10 µM
NS(=O)(=O)c1ccc(Nc2nc(N/N=C/c3ccccn3)nc(Nc3ccccc3)n2)cc1 | 174%

system: Malme-3M; assay: Anticancer activity against human Malme-3M cells assessed as cell growth inhibition at 10 uM incubated for 48 hrs by SRB assay relative to control; format: functional; conditions: read-out: GI

SMILES | inhibition of growth at 10 µM
NS(=O)(=O)c1ccc(Nc2nc(N/N=C/c3ccccn3)nc(Nc3ccccc3)n2)cc1 | 168%

system: UACC-62; assay: Anticancer activity against human UACC-62 cells assessed as cell growth inhibition at 10 uM incubated for 48 hrs by SRB assay relative to control; format: functional; conditions: read-out: GI

SMILES | inhibition of growth at 10 µM
NS(=O)(=O)c1ccc(Nc2nc(N/N=C/c3ccccn3)nc(Nc3ccccc3)n2)cc1 | 149%

system: COLO 205; assay: Anticancer activity against human COLO 205 cells assessed as cell growth inhibition at 10 uM incubated for 48 hrs by SRB assay relative to control; format: functional; conditions: read-out: GI

SMILES | inhibition of growth at 10 µM
NS(=O)(=O)c1ccc(Nc2nc(N/N=C/c3ccccn3)nc(Nc3ccccc3)n2)cc1 | 142%

molecular target: Carbonic anhydrase 9 (Homo sapiens, UniProt Q16790); assay: Inhibition of recombinant human CA 9 preincubated for 15 mins by phenol red dye based stopped flow CO2 hydration assay; conditions: not given

SMILES | Ki
NS(=O)(=O)c1ccc(Nc2nc(N/N=C/c3ccccn3)nc(Nc3ccccc3)n2)cc1 | 27.2 nM

system: CCRF-CEM; assay: Anticancer activity against human CCRF-CEM cells assessed as cell growth inhibition at 10 uM incubated for 48 hrs by SRB assay relative to control; format: functional; conditions: read-out: GI

SMILES | inhibition of growth at 10 µM
NS(=O)(=O)c1ccc(Nc2nc(N/N=C/c3ccccn3)nc(Nc3ccccc3)n2)cc1 | 94%

system: OVCAR-5; assay: Anticancer activity against human OVCAR-5 cells assessed as cell growth inhibition at 10 uM incubated for 48 hrs by SRB assay relative to control; format: functional; conditions: read-out: GI

SMILES | inhibition of growth at 10 µM
NS(=O)(=O)c1ccc(Nc2nc(N/N=C/c3ccccn3)nc(Nc3ccccc3)n2)cc1 | 90%

system: MDA-MB-468; assay: Anticancer activity against human MDA-MB-468 cells assessed as cell growth inhibition at 10 uM incubated for 48 hrs by SRB assay relative to control; format: functional; conditions: read-out: GI

SMILES | inhibition of growth at 10 µM
NS(=O)(=O)c1ccc(Nc2nc(N/N=C/c3ccccn3)nc(Nc3ccccc3)n2)cc1 | 129%

system: HCT-116; assay: Anticancer activity against human HCT-116 cells assessed as cell growth inhibition at 10 uM incubated for 48 hrs by SRB assay relative to control; format: functional; conditions: read-out: GI

SMILES | inhibition of growth at 10 µM
NS(=O)(=O)c1ccc(Nc2nc(N/N=C/c3ccccn3)nc(Nc3ccccc3)n2)cc1 | 129%

system: NCI-H460; assay: Anticancer activity against human NCI-H460 cells assessed as cell growth inhibition at 10 uM incubated for 48 hrs by SRB assay relative to control; format: functional; conditions: read-out: GI

SMILES | inhibition of growth at 10 µM
NS(=O)(=O)c1ccc(Nc2nc(N/N=C/c3ccccn3)nc(Nc3ccccc3)n2)cc1 | 96%

system: SF-539; assay: Anticancer activity against human SF-539 cells assessed as cell growth inhibition at 10 uM incubated for 48 hrs by SRB assay relative to control; format: functional; conditions: read-out: GI

SMILES | inhibition of growth at 10 µM
NS(=O)(=O)c1ccc(Nc2nc(N/N=C/c3ccccn3)nc(Nc3ccccc3)n2)cc1 | 142%

system: HOP-92; assay: Anticancer activity against human HOP-92 cells assessed as cell growth inhibition at 10 uM incubated for 48 hrs by SRB assay relative to control; format: functional; conditions: read-out: GI

SMILES | inhibition of growth at 10 µM
NS(=O)(=O)c1ccc(Nc2nc(N/N=C/c3ccccn3)nc(Nc3ccccc3)n2)cc1 | 146%

system: HCT-15; assay: Anticancer activity against human HCT-15 cells assessed as cell growth inhibition at 10 uM incubated for 48 hrs by SRB assay relative to control; format: functional; conditions: read-out: GI

SMILES | inhibition of growth at 10 µM
NS(=O)(=O)c1ccc(Nc2nc(N/N=C/c3ccccn3)nc(Nc3ccccc3)n2)cc1 | 82%

system: NCI-H23; assay: Anticancer activity against human NCI-H23 cells assessed as cell growth inhibition at 10 uM incubated for 48 hrs by SRB assay relative to control; format: functional; conditions: read-out: GI

SMILES | inhibition of growth at 10 µM
NS(=O)(=O)c1ccc(Nc2nc(N/N=C/c3ccccn3)nc(Nc3ccccc3)n2)cc1 | 107%

system: SR; assay: Anticancer activity against human SR cells assessed as cell growth inhibition at 10 uM incubated for 48 hrs by SRB assay relative to control; format: functional; conditions: read-out: GI

SMILES | inhibition of growth at 10 µM
NS(=O)(=O)c1ccc(Nc2nc(N/N=C/c3ccccn3)nc(Nc3ccccc3)n2)cc1 | 87%

system: RXF 393; assay: Anticancer activity against human RXF 393 cells assessed as cell growth inhibition at 10 uM incubated for 48 hrs by SRB assay relative to control; format: functional; conditions: read-out: GI

SMILES | inhibition of growth at 10 µM
NS(=O)(=O)c1ccc(Nc2nc(N/N=C/c3ccccn3)nc(Nc3ccccc3)n2)cc1 | 174%

system: SW-620; assay: Anticancer activity against human SW-620 cells assessed as cell growth inhibition at 10 uM incubated for 48 hrs by SRB assay relative to control; format: functional; conditions: read-out: GI

SMILES | inhibition of growth at 10 µM
NS(=O)(=O)c1ccc(Nc2nc(N/N=C/c3ccccn3)nc(Nc3ccccc3)n2)cc1 | 117%
